In patent US6342602B1, “Aryl or heteroaryl amides of tetrahydronaphthalene, chroman, thichroman and 1,2,3,4-tetrahydroquinolinecarboxlic acids, having an electron withdrawing substituent in the aromatic or heteroaromatic moiety, having retinoid-like biological activity” (Allergan Sales, Inc., priority 1995, dated 2002):
Read-outs that look alike come from different tables or passages of the source.

Experiments:
RPMI 8226 = assay: Cancer cell line assay, incorporation of 3H-thymidine; assay type: cell-based, human; details: 10^−11 to 10^−6 molar concentration range, 96 hours
Protocol: All trans-Retinoic acid (t-RA) (Sigma Chemicals Co., St. Louis, M.) was stored at −70° C. Prior to each experimet the compound was dissolved in 100% ethanol at 1 mM and diluted in culture medium immediately before use. All experiments were performed in subdued light. Controls were assayed using the same concentration of ethanol as present in the experimental plates and this concentration of diluent had no effect in either assay.
All cell lines, RPMI 8226, ME-180 and AML-193 were obtained from the American Type Culture Collection (ATCC, Rockville, Md.). RPMI 8226 is a human hematopoietic cell line obtained from the peripheral blood of a patient with multiple myeloma. The cells resemble the lymphoblastoid cells of other human lymphocyte cell lines and secrete […] light chains of immunoglobulin. RPMI-8226 cells are grown in RPMI medium (Gibco) supplemented with 10% fetal bovine serum, glutamine and antibiotics. The cells were maintained as suspension cultures grown at 37° C. in a humidified atmosphere of 5% CO2 in air. The cells were diluted to a concentration of 1×10^5/ml twice a week.
The method used for determination of the incorporation of radiolabeled thymidine was adapted from the procedure described by Shrivastav et al. RPMI-8226 cells were plated in a 96 well round bottom microtiter plate (Costar) at a density of 1,000 cells/well. To appropriate wells, retinoid test compounds were added at the final concentrations indicated for a final volume of 150 μl/well. The plates were incubated for 96 hours at 37° C. in a humidified atmosphere of 5% CO2 in air. Subsequently, 1 μCi of (5′-^3H]-thymidine (Amersham, U.K. 43 Ci/mmol specific activity) in 25 μl culture medium was added to each well and the cells were incubated for an additional 6 hours. The cultures were further processed as described below.
All cells lines were then processed as follows: the cellular DNA was precipitated with […] trichloroacetic acid onto glass fiber filter mats using a SKATRON multi-well cell harvester (Skatron Instruments, Sterling Va.). Radioactivity incorporated into DNA, as a direct measurement of cell growth, was measured by liquid scintillation counting. The numbers represent the mean disintegrations per minute of incorporated thymidine from triplicate wells±SEM.

RARβ = biological target: T1, RARβ (Homo sapiens, UniProt P10826); assay: Ligand binding assay; details: receptor expressed in Baculovirus; competition with [3H] retinoic acid; Cheng-Prusoff from IC50
T1 construct: made in house; used as extract protein
T1 sequence (P10826 1-455): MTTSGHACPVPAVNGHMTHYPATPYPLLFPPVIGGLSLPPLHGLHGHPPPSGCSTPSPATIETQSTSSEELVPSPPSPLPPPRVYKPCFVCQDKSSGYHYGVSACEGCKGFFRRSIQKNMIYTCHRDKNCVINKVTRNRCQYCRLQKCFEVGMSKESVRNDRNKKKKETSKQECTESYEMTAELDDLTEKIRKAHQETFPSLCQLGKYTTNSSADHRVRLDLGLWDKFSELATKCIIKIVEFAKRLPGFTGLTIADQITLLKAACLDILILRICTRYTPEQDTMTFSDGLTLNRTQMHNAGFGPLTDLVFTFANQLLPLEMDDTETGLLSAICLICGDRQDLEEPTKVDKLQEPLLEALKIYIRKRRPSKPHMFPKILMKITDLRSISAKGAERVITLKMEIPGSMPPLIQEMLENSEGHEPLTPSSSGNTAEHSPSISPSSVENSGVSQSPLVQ
Protocol: (§1) A holoreceptor transactivation assay and a ligand binding assay which measure the ability of the compounds of the invention to bind to the several retinoid receptor subtypes, respectively, are described in published PCT Application No. WO WO93/11755 (particularly on pages 30-33 and 37-41) published on Jun. 24, 1993, the specification of which is also incorporated herein by reference. A description of the ligand binding assay is also provided below.
(§2) All binding assays were performed in a similar fashion. All six receptor types were derived from the expressed receptor type (RAR α, β, τ and RXR α, β, τ) expressed in Baculovirus. Stock solutions of all compounds were prepared as 10 mM ethanol solutions and serial dilutions carried out into 1:1 DMSO; ethanol. Assay buffers consisted of the following for all six receptor assays: 8% glycerol, 120 mM KCl, 8 mM Tris, 5 mM CHAPS 4 mM DTT and 0.24 mM PMSF, pH-7.4@room temperature.
(§3) All receptor biding assays were performed in the same manner. The final assay volume was 250 μl and contained from […] of extract protein depending on receptor being assayed along with 5 nM of [^3H) alltrans retinoic acid or 10 nM [^3H) 9-cis retinoic acid and varying concentrations of competing ligand at concentrations that ranged from 0-10^−5 M. The assays were formatted for a 96 well minitube system. Incubations were carried out at 4° C. until equilibrium was achieved. Non-specific binding was defined as that binding remaining in the presence of 1000 nM of the appropriate unlabeled retinoic acid isomer. At the end of the incubation period, 50 μl of 6.25% hydroxyapitite was added in the appropriate wash buffer. The wash buffer consisted of 100 mM KCl, 10 mM Tris and either 5 mM CHAPS (RXR α, β, τ) or 0.5% Triton X-100 (RAR α, β, τ). The mixture was vortexed and incubated for 10 minutes at 4° C., centrifuged and the supernatant removed. The hydroxyapitite was washed three more times with the appropriate wash buffer. The receptor-ligand complex was adsorbed by the hydroxyapitite. The amount of receptor-ligand complex was determined by liquid scintillation counting of hydroxyapitite pellet.
(§4) After correcting for non-specific binding, IC50 values were determined. […] The IC50 value was determined graphically from a loglogit plot of the data. The Kd values were determined by application of the ChengPrussof equation to the IC50 values, the labeled ligand concentration and the Kd of the labeled ligand.
(§5) The results of ligand binding assay are expressed in Kd numbers. (See Cheng et al. Biochemical Pharmacology Vol. 22 pp 3099-3108, expressly incorporated herein by reference.)

RARα = biological target: T2, RARα (Homo sapiens, UniProt P10276); assay: Ligand binding assay
T2 construct: made in house; used as extract protein
T2 sequence (P10276 1-462): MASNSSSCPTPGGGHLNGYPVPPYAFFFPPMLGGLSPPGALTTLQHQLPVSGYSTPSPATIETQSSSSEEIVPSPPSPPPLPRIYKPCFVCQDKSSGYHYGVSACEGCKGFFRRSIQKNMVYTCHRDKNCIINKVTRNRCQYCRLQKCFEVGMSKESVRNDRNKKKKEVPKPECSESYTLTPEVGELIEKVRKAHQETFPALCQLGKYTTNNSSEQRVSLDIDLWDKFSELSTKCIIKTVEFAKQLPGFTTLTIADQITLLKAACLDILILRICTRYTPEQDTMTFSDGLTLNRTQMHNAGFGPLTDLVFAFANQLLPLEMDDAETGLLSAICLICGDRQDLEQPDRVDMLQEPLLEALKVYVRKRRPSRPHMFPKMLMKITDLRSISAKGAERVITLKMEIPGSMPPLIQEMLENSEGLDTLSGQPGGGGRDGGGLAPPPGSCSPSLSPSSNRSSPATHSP
Protocol: as §1, §2, §3, §4, §5

[1] = receptor expressed in Baculovirus, competition with [3H] retinoic acid, Cheng-Prusoff from IC50, read-out: Kd RARα

| Kd (RARβ) [µM] | Kd (RARα; [1]) [µM] | SMILES | proliferation of the tumor cell line (incorporation of radioactive labeled thymidine) (RPMI 8226) | Kd (RARα) [µM] |
| --- | --- | --- | --- | --- |
| > 1 | 0.057 | Cc1cc(C(=O)Nc2ccc(C(=O)O)c(F)c2)cc2c1OC(C)(C)CC2(C)C [Compound 22] |  |  |
| > 1 | 0.162 | CC1(C)CC(C)(C)c2cc(C(=O)Nc3ccc(C(=O)O)c(F)c3)ccc2O1 [Compound 32] |  |  |
| > 1 | 0.052 | CC1(C)CC(C)(C)c2cc(C(=O)Nc3ccc(C(=O)O)c(F)c3)cc(N=[N+]=[N-])c2O1 [Compound 16, 2-Fluoro-4-[(21′,2′,4′,4′-tetramethyl-8′-azidochroman-6′-yl)carbamoyl]benzoic Acid] |  |  |
| > 1 | 0.024 | CC1(C)CC(C)(C)c2cc(C(=O)Nc3ccc(C(=O)O)c(F)c3)cc(Br)c2O1 [Compound 12] | significant decrease in the proliferation |  |
| > 1 | 0.014 | CC1(C)CC(C)(C)c2cc(C(=O)Nc3ccc(C(=O)O)c(F)c3)cc(C(F)(F)F)c2O1 [Compound 14] | significant decrease in the proliferation |  |
| > 1 | 0.016 | CC1(C)CC(C)(C)c2cc(C(=O)Nc3ccc(C(=O)O)c(F)c3)cc(I)c2O1 [Compound 20] | significant decrease in the proliferation |  |

The remaining lines, values behind:

| SMILES | Kd (RARβ) [µM] | Kd (RARα; [1]) [µM] | proliferation of the tumor cell line (incorporation of radioactive labeled thymidine) (RPMI 8226) | Kd (RARα) [µM] |
| --- | --- | --- | --- | --- |
| CC1(C)CCC(C)(C)c2c(Br)cc(C(=O)Nc3ccc(C(=O)O)c(F)c3)cc21 [Compound 6] | > 1 | 0.0013 | significant decrease in the proliferation |  |
| CC1(C)CCC(C)(C)c2cc(C(=O)Nc3cc(F)c(C(=O)O)c(F)c3)ccc21 [Compound 38] | > 1 | 0.009 |  |  |
| CC1(C)CCC(C)(C)c2c1cc(C(=O)Nc1cc(F)c(C(=O)O)c(F)c1)c(O)c2Br [Compound 36] | > 1 |  |  | 0.0023 |
| CC1(C)CCC(C)(C)c2cc(C(=O)Nc3ccc(C(=O)O)c(F)c3)ccc21 [Compound 2] | 0.48 | 0.0019 |  |  |
| CC1(C)CCC(C)(C)c2cc(C(=O)Nc3ccc(C(=O)O)c(F)c3)c(O)cc21 [Compound 8] | > 1 | 0.003 | significant decrease in the proliferation |  |
| CC1(C)CCC(C)(C)c2cc(C(=O)Nc3ccc(C(=O)O)cc3)c(F)cc21 [Compound 4] | 0.023 | 0.023 |  |  |
| CC1(C)CCC(C)(C)c2cc(C(=S)Nc3ccc(C(=O)O)cc3)ccc21 [Compound 26] | > 1 | 0.015 |  |  |
| CC1(C)CC(C)(C)c2cc(C(=O)Nc3cc(F)c(C(=O)O)c(F)c3)cc(C(F)(F)F)c2O1 [Compound 18, 2,6-Difluoro-4-[(2′,2′,4′,4′-tetramethyl-8′-trifluoromethylchroman-6′-yl)carbamoyl]benzoic Acid] | > 1 | 0.051 |  |  |
